Patent publication US20030237103A1, “Methods and compositions for pharmacological and toxicological evaluation of test agents” (priority 2002, published 2003)

Legend:
[1] = tested on: Panel and outbred (CD-IGS) rat strains; experiment: Proteinuria, glucose excretion and renal histology after cisplatin; type: in vivo; details: 5 mg/Kg cisplatin
[2] = tested on: Panel and outbred (CD-IGS) rat strains; experiment: Clinical chemistry endpoints of cisplatin-treated vs. vehicle rats; type: in vivo; set-up: T-test value AST / T-test value ALT: unit not given here; details: cisplatin 5 mg/Kg vs. vehicle
[3] = tested on: Panel, CD-IGS and parental rat strains; experiment: Plasma triglyceride lowering by clofibrate; type: in vivo; details: between WKY×LEW, WKY×BN and WKY×F344; 250 mg/Kg
Description: Triglyceride levels in plasma were measured following euthanasia on day 7. Plotted are the percent differences in triglyceride values in a particular drug treatment group.

[4] = tested on: Panel, CD-IGS and parental rat strains; details: in vivo, 250 mg/kg
Description: Alanine transferase (ALT) levels in plasma an index of liver damage were measured in outbred and inbred strains (top panel) and the Panel F1 hybrids (bottom panel) following euthanasia on day 7. Plotted are the average ALT values for drug (left) and vehicle (right) within a particular drug treatment group (designated by strain). The number of animals tested in each group is denoted below the strain designation in parenthesis as # drug treated animas/#vehicle treated animals.
We delivered the clofibrate orally by gavage (250 mg/Kg in hydroxyproply methyl cellulose) to the rats on 6 consecutive days.

[5] = tested on: Panel, CD-IGS and parental rat strains; experiment: Liver histology after clofibrate; type: in vivo
Source text: Hypolipidemic drugs, such as clofibrate, commonly induce peroxisomal proliferation and an increase in the activity of peroxisomal beta-oxidation pathway. We looked for these changes in our rats by histological analysis of a section of the left lateral lobe from livers of either clofibrate or vehicle treated rats. While we could detect cellular differences (e.g. hepatocelluar hypertrophy, hepatocellular vacuolization, anisokaryosis and portal lymphocytic infiltrates) among the clofibrate treated livers versus the vehicle controls within any strain.

[6] = tested on: rat liver peroxisomal fatty-acyl CoA oxidase; experiment: Fluorometric assay of liver peroxisomal fatty-acyl CoA oxidase (FAO) activity after clofibrate; type: in vivo; details: CD-IGS rats
Description: Peroxisomal fractions from livers of each strain were measured for FAO activity. In order to account for intra-strain variability, graphed are the average values derived by subtracting the vehicle FAO (average) from each individual drug induced FAO. The y-axis represents the FAO activity (nmol H2O2 per minute-mg peroximal protein).
The assay was done by using a fluorometric assay for rat liver peroxisomal fafty-acyl CoA oxidase activity (FAO). The first step of this assay uses a palmitoyl-CoA dependent NAD+ reducing system to oxidize FAO and produce H2O2. The H2O2 is then coupled in a peroxidase catalyzed reaction to the oxidation of scopoletin, a naturally fluorescent compound. A fall in fluorescence of the sample indicates an increase in FAO activity which subsequently reflects the increase in the fatty acid oxidase in the liver.
Six clofibrate samples and four vehicle samples were individually tested for FAO activity in duplicate tests. Using an H2O2 standard curve enables the change in fluorescence to be converted to FAO activity units (Walusimbi-Kisitu, M. and E. H. Harrison, J. Lipid Res. 24(8):1077-1084, 1983).

SMILES: N.N.[Cl][Pt][Cl] [cisplatin]
- degree of proteinuria, glucose excretion and histologic damage to renal proximal tubules between the strains [1]: marked differences
- T-test value ALB ([2]; BNxF344 rats): 0.111
- T-test value ALP ([2]; BNxF344 rats): 0.157
- T-test value ALT ([2]; BNxF344 rats): 0.600
- T-test value ANION GAP ([2]; BNxF344 rats): 0.069
- T-test value AST ([2]; BNxF344 rats): 0.780
- T-test value BICARB ([2]; BNxF344 rats): 0.003
- T-test value BUN ([2]; BNxF344 rats): 0.002
- T-test value CA ([2]; BNxF344 rats): 0.642
- T-test value CHOL ([2]; BNxF344 rats): 0.001
- T-test value CREAT ([2]; BNxF344 rats): 0.001
- T-test value GGT ([2]; BNxF344 rats): 0.351
- T-test value GLOB ([2]; BNxF344 rats): 0.116
- T-test value GLU ([2]; BNxF344 rats): 0.477
- T-test value K ([2]; BNxF344 rats): 0.133
- T-test value NA ([2]; BNxF344 rats): 0.851
- T-test value PHOS ([2]; BNxF344 rats): 0.230
- T-test value TBILI ([2]; BNxF344 rats): 0.005
- T-test value TP ([2]; BNxF344 rats): 0.877
- T-test value TRIG ([2]; BNxF344 rats): 0.153
- T-test value ALB ([2]; CD-IGS rats): 0.096
- T-test value ALP ([2]; CD-IGS rats): 0.567
- T-test value ALT ([2]; CD-IGS rats): 0.732
- T-test value ANION GAP ([2]; CD-IGS rats): 0.440
- T-test value AST ([2]; CD-IGS rats): 0.433
- T-test value BICARB ([2]; CD-IGS rats): 0.436
- T-test value BUN ([2]; CD-IGS rats): 0.003
- T-test value CA ([2]; CD-IGS rats): 0.268
- T-test value CHOL ([2]; CD-IGS rats): 0.393
- T-test value CREAT ([2]; CD-IGS rats): 0.002
- T-test value GGT ([2]; CD-IGS rats): 0.351
- T-test value GLOB ([2]; CD-IGS rats): 0.750
- T-test value GLU ([2]; CD-IGS rats): 0.965
- T-test value K ([2]; CD-IGS rats): 0.465
- T-test value NA ([2]; CD-IGS rats): 0.095
- T-test value PHOS ([2]; CD-IGS rats): 0.943
- T-test value TBILI ([2]; CD-IGS rats): 0.742
- T-test value TP ([2]; CD-IGS rats): 0.080
- T-test value TRIG ([2]; CD-IGS rats): 0.133
- T-test value ALB ([2]; LEWxBN rats): 0.000
- T-test value ALP ([2]; LEWxBN rats): 0.001
- T-test value ALT ([2]; LEWxBN rats): 0.593
- T-test value ANION GAP ([2]; LEWxBN rats): 0.058
- T-test value AST ([2]; LEWxBN rats): 0.341
- T-test value BICARB ([2]; LEWxBN rats): 0.016
- T-test value BUN ([2]; LEWxBN rats): 0.000
- T-test value CA ([2]; LEWxBN rats): 0.333
- T-test value CHOL ([2]; LEWxBN rats): 0.000
- T-test value CREAT ([2]; LEWxBN rats): 0.000
- T-test value GGT ([2]; LEWxBN rats): 0.339
- T-test value GLOB ([2]; LEWxBN rats): 0.007
- T-test value GLU ([2]; LEWxBN rats): 0.024
- T-test value K ([2]; LEWxBN rats): 0.036
- T-test value NA ([2]; LEWxBN rats): 0.230
- T-test value PHOS ([2]; LEWxBN rats): 0.063
- T-test value TBILI ([2]; LEWxBN rats): 0.463
- T-test value TP ([2]; LEWxBN rats): 0.148
- T-test value TRIG ([2]; LEWxBN rats): 0.085
- T-test value ALB ([2]; LEWxF344 rats): 0.534
- T-test value ALP ([2]; LEWxF344 rats): 0.214
- T-test value ALT ([2]; LEWxF344 rats): 0.979
- T-test value ANION GAP ([2]; LEWxF344 rats): 0.711
- T-test value AST ([2]; LEWxF344 rats): 0.739
- T-test value BICARB ([2]; LEWxF344 rats): 0.596
- T-test value BUN ([2]; LEWxF344 rats): 0.000
- T-test value CA ([2]; LEWxF344 rats): 0.448
- T-test value CHOL ([2]; LEWxF344 rats): 0.000
- T-test value CREAT ([2]; LEWxF344 rats): 0.000
- T-test value GLOB ([2]; LEWxF344 rats): 0.361
- T-test value GLU ([2]; LEWxF344 rats): 0.695
- T-test value K ([2]; LEWxF344 rats): 0.152
- T-test value NA ([2]; LEWxF344 rats): 0.738
- T-test value PHOS ([2]; LEWxF344 rats): 0.831
- T-test value TBILI ([2]; LEWxF344 rats): 0.663
- T-test value TP ([2]; LEWxF344 rats): 0.492
- T-test value TRIG ([2]; LEWxF344 rats): 0.540
- T-test value ALB ([2]; Panel (all six strains)): 0.000
- T-test value ALP ([2]; Panel (all six strains)): 0.000
- T-test value ALT ([2]; Panel (all six strains)): 0.693
- T-test value ANION GAP ([2]; Panel (all six strains)): 0.014
- T-test value AST ([2]; Panel (all six strains)): 0.227
- T-test value BICARB ([2]; Panel (all six strains)): 0.000
- T-test value BUN ([2]; Panel (all six strains)): 0.000
- T-test value CA ([2]; Panel (all six strains)): 0.974
- T-test value CHOL ([2]; Panel (all six strains)): 0.000
- T-test value CREAT ([2]; Panel (all six strains)): 0.000
- T-test value GGT ([2]; Panel (all six strains)): 0.024
- T-test value GLOB ([2]; Panel (all six strains)): 0.016
- T-test value GLU ([2]; Panel (all six strains)): 0.561
- T-test value K ([2]; Panel (all six strains)): 0.000
- T-test value NA ([2]; Panel (all six strains)): 0.414
- T-test value PHOS ([2]; Panel (all six strains)): 0.004
- T-test value TBILI ([2]; Panel (all six strains)): 0.027
- T-test value TP ([2]; Panel (all six strains)): 0.487
- T-test value TRIG ([2]; Panel (all six strains)): 0.058
- T-test value ALB ([2]; WKYxBN rats): 0.337
- T-test value ALP ([2]; WKYxBN rats): 0.956
- T-test value ALT ([2]; WKYxBN rats): 0.222
- T-test value ANION GAP ([2]; WKYxBN rats): 0.485
- T-test value AST ([2]; WKYxBN rats): 0.189
- T-test value BICARB ([2]; WKYxBN rats): 0.649
- T-test value BUN ([2]; WKYxBN rats): 0.001
- T-test value CA ([2]; WKYxBN rats): 0.064
- T-test value CHOL ([2]; WKYxBN rats): 0.000
- T-test value CREAT ([2]; WKYxBN rats): 0.002
- T-test value GGT ([2]; WKYxBN rats): 0.170
- T-test value GLOB ([2]; WKYxBN rats): 0.007
- T-test value GLU ([2]; WKYxBN rats): 0.968
- T-test value K ([2]; WKYxBN rats): 0.014
- T-test value NA ([2]; WKYxBN rats): 0.165
- T-test value PHOS ([2]; WKYxBN rats): 0.081
- T-test value TBILI ([2]; WKYxBN rats): 0.379
- T-test value TP ([2]; WKYxBN rats): 0.458
- T-test value TRIG ([2]; WKYxBN rats): 0.210
- T-test value ALB ([2]; WKYxF344 rats): 0.001
- T-test value ALP ([2]; WKYxF344 rats): 0.000
- T-test value ALT ([2]; WKYxF344 rats): 0.604
- T-test value ANION GAP ([2]; WKYxF344 rats): 0.868
- T-test value AST ([2]; WKYxF344 rats): 0.934
- T-test value BICARB ([2]; WKYxF344 rats): 0.004
- T-test value BUN ([2]; WKYxF344 rats): 0.000
- T-test value CA ([2]; WKYxF344 rats): 0.037
- T-test value CHOL ([2]; WKYxF344 rats): 0.004
- T-test value CREAT ([2]; WKYxF344 rats): 0.000
- T-test value GLOB ([2]; WKYxF344 rats): 0.007
- T-test value GLU ([2]; WKYxF344 rats): 0.155
- T-test value K ([2]; WKYxF344 rats): 0.583
- T-test value NA ([2]; WKYxF344 rats): 0.872
- T-test value PHOS ([2]; WKYxF344 rats): 0.282
- T-test value TBILI ([2]; WKYxF344 rats): 0.008
- T-test value TP ([2]; WKYxF344 rats): 0.054
- T-test value TRIG ([2]; WKYxF344 rats): 0.041
- T-test value ALB ([2]; WKYxLEW rats): 0.453
- T-test value ALP ([2]; WKYxLEW rats): 0.342
- T-test value ALT ([2]; WKYxLEW rats): 0.874
- T-test value ANION GAP ([2]; WKYxLEW rats): 0.033
- T-test value AST ([2]; WKYxLEW rats): 0.689
- T-test value BICARB ([2]; WKYxLEW rats): 0.266
- T-test value BUN ([2]; WKYxLEW rats): 0.009
- T-test value CA ([2]; WKYxLEW rats): 0.870
- T-test value CHOL ([2]; WKYxLEW rats): 0.019
- T-test value CREAT ([2]; WKYxLEW rats): 0.025
- T-test value GGT ([2]; WKYxLEW rats): 0.363
- T-test value GLOB ([2]; WKYxLEW rats): 0.057
- T-test value GLU ([2]; WKYxLEW rats): 0.289
- T-test value K ([2]; WKYxLEW rats): 0.137
- T-test value NA ([2]; WKYxLEW rats): 1.000
- T-test value PHOS ([2]; WKYxLEW rats): 0.055
- T-test value TBILI ([2]; WKYxLEW rats): 0.364
- T-test value TP ([2]; WKYxLEW rats): 0.008
- T-test value TRIG ([2]; WKYxLEW rats): 0.677

SMILES: CCOC(=O)C(C)(C)Oc1ccc(Cl)cc1 [clofibrate]
- variation in magnitude of the fall in plasma triglyceride levels [3]: 3 fold
- AST levels (predictor of liver toxicity) [4]: not significantly affected
- liver hypertrophy ([5]; all the strains): hypertrophy of the liver
- histopathology differences between the strains within the Panel ([5]; left lateral lobe sections, clofibrate vs. vehicle): no quantitative differences
- hepatotoxic effects relative to other strains (FAO activity) [6]: resistant
